Assay results taken from a melting point compilation (Tetko et al.; mined from patent text by program, amines drawn as free bases though some values may be those of a salt).

melting point | SMILES
55 to 57 °C | CC1(C)C=C(C(=O)NCC2COC(C)(C)O2)C(C)(C)N1 (stereo not given)
132 °C | COc1ccc(C2=NC[C@@H](OC(=O)Nc3ccccc3)[C@H](c3ccccc3)O2)cc1 (racemic)
100 to 101 °C | CC(C)(C)c1cc(CCc2nnco2)cc(C(C)(C)C)c1O
> 320 °C | Cc1csc2[nH]c(=O)c(=O)[nH]c12
262 to 264 °C | Cn1cc(C(=O)C(=O)NC2=CC(=O)OC2)c2ccccc21
45 to 48 °C | Cc1ccc(-c2nc3ccc(C(C)(C)CN)cc3[nH]2)cc1
45 to 58 °C | CC(C)N[C@@H](Cc1ccccc1)C(=O)N1CCN(C(c2ccc(F)cc2)c2ccc(F)cc2)CC1
121 °C | CCc1c(-c2cnccn2)ssc1=S
240 °C | N#CC(=Cc1ccc(O)c(O)c1)C(=O)O
85 °C | c1cncc(OCCCCCCOc2cccnc2)c1
55 to 58 °C | CC(=O)OCCc1ccc2c(c1)C(=O)c1ccccc1CO2
271 to 272 °C | CC(=O)c1cc(Nc2nc(N)nc(N)n2)cc(C(C)=O)c1
223 to 226 °C | O=C(O)c1cc(=O)n(Cc2ccccc2S(=O)(=O)O)[nH]1
147 to 149 °C | Clc1ccc2nc(Cl)c(-c3ccccc3)cc2c1
180 to 181 °C | O=C(O)CCc1oc(N2CCOCC2)nc1-c1ccc(Cl)cc1
48 to 50 °C | COc1cc(OC)c(F)c(NCc2cnc(SC)nc2NC2CC2)c1F
82 to 84 °C | CCOC(=O)C1=Cc2cc(-c3ccc(C)cc3)ccc2OC1C (stereo not given)
71.5 to 72 °C | CCOC(=O)CNC(=O)C(CCl)NC(=O)OC(C)(C)C (stereo not given)

melting point | SMILES
116 to 119 °C | CCCC(=O)Oc1ccc(C)cc1[C@H](CCN(C(C)C)C(C)C)c1ccccc1
160 °C | Cc1cccc(NC(=O)NCC(=O)N(CC(=O)OC(C)(C)C)c2ccccc2C(=O)N2CCCc3ccccc32)c1
122 to 124 °C | Cc1nc(-c2ccc(Cl)cc2Cl)sc1C(=O)NCCCCN1CCC(c2ccc3c(c2OCCO)CCCC3)CC1
159 to 161 °C | COc1ccc(-c2c(C(=O)CC(C)C)c(CBr)nc3cc(OC)c(OC)cc23)cc1OC
190 to 191 °C | NS(=O)(=O)c1cc2c(cc1Cl)C(=O)N(CCCN1CCOCC1)C2=O
172 to 174 °C | Cc1c(C)c2c(c(C)c1O)CCC(C)(C(=S)Nc1cc(C(C)(C)C)c(O)c(C(C)(C)C)c1)O2 (stereo not given)
170 to 175 °C | CCOC(=O)C(CBr)=C1CC(=O)CCC1=N
109 °C | N#CC(Cl)CS(=O)(=O)c1ccc(OC(F)(F)C(Cl)Cl)cc1 (stereo not given)
130 to 133 °C | CC(=O)c1cccc(NC(=O)C(C)(C)C)c1
274 to 277 °C | O=C(O)CN1C(=O)C(=Cc2ccc([N+](=O)[O-])cc2)SC1=S
201 to 204 °C | O=C(N[C@H](Cc1ccccc1)C(=O)O)OCc1ccc2oc(Cc3ccccc3)cc2c1
180 to 185 °C | NS(=O)(=O)c1cc(CCNC(=O)C=Cc2cccs2)ccc1OCC1CCCO1 (stereo not given)
86 to 88 °C | CCOc1cc(C(=CC#N)c2ccc(OC)c(C)c2)ccc1OC
87 to 88 °C | CC(C=CCC(C)(O)CO)C1CCC2C(O)CCCC12C (stereo not given)
214 to 216 °C | CCCc1c(OCCCOc2ccc(-c3nnn[nH]3)cc2Cl)ccc(C(C)=O)c1O
72 °C | CCCCc1oc2ccccc2c1C(=O)NCc1ccc2c(-c3ccccc3)c(O)ccc2c1
145 to 146 °C | O=C(CNC1=Nc2cccc3cccc1c23)NCCCn1ccnc1
84.5 to 86 °C | O=Cc1ccccc1Oc1ccc(I)cc1

SMILES | melting point
CCCCC12CCC3C4CCC(=O)C=C4CCC3C1CCC2O (stereo not given) | 169 to 170 °C
O=C1C=C(NC(=O)C(=O)c2cn(Cc3ccc(Cl)cc3)c3ccc([N+](=O)[O-])cc23)CO1 | 248 to 250 °C
Cc1c(C2CCC(Cc3ccccc3)(N(C)C)CC2)[nH]c2ccc(C(F)(F)F)cc12 (stereo not given) | 166 to 174 °C
Cc1cc(Cl)cc(C(=O)NCC2(C)CC2)c1NC(=O)c1cc(C(F)(F)F)nn1-c1ncccc1Cl | 210 °C
